# Measurements reported in patent US6589977B1, “Pyrrole derivatives and cell death inhibitors” (Sagami Chemical Research Center, priority 1999, dated 2003).
# Key:
# [1] = test system: erythrocytes; assay: Inhibition of hydrogen peroxide-induced hemolysis of erythrocytes; type: cell-based, Human; details: compound 10 μM added prior to hydrogen peroxide (300 μM); after 24 hours
# Protocol: Human blood was collected and precipitated by a centrifugation (1000 rpm, 5 min) and the precipitate containing erythrocytes was washed three times with PBS and resuspended (about 5×10^8 cells/ml) with DMEM containing 10% fetal bovine serum. Cell suspensions were dispensed into a 48-well plate to become subconfluent (about 5×10^5 cells/0.5 ml/well). When hydrogen peroxide (300 μM) was added and cultivation continued for 24 hours, more than 95% of erythrocytes underwent hemolysis and become dark and ghost-like on an observation under a light microscopy.
# [2] = test system: cerebellar granule cells; assay: Inhibition of MPPI-induced death of cerebellar granule cells (Parkinson model); type: cell-based, rats; details: compound 1 μM added prior to MPPI (200 μM); 15 DIV cells; after 18 hours
# Protocol: According to a known method (A Dissection and Tissue Culture Manual of the Nervous System, p. 211, 1989, Alan R, Liss, Inc.), cerebellar granule cells were isolated from the cerebellum of 7 days old rats and cultured. Namely, after conducting isolation procedures described in the above literature, the resulting cells were resuspended in DMEM containing 10% fetal bovine serum, 25 mM KCl and 2 mM glutamine, and seeded in poly-lysine coated plates. After the cells were cultured in a CO2 incubator for 48 hours according to a conventional method, cytosine-1-β-D(+)-arabinofuranoside (Ara-C) (10 μM) was added thereto, and the cell was continued to culture. […]
# In Parkinson's disease the dopaminergic neurons in the substantia nigra and corpus striatum in the mid-brain are selectively destroyed. Because following administration of MPTP(1-methyl-4-phenyl-1,2,3,6-tetrahydropyridine) the similar selective destruction of the dopaminergic neurons and Parkinson's disease-like symptoms are observed, the administration system of MPTP is generally employed as an in vivo model of the onset of Parkinson's disease. […]
# [3] = test system: cerebellar granule cells; assay: Inhibition of glutamate-induced death of cerebellar granule cells; type: cell-based, rats; details: compound 10 μM; glutamate (1 mM); after 6 hours
# Protocol: (§1) According to a known method (A Dissection and Tissue Culture Manual of the Nervous System, p. 211, 1989, Alan R, Liss, Inc.), cerebellar granule cells were isolated from the cerebellum of 7 days old rats and cultured. Namely, after conducting isolation procedures described in the above literature, the resulting cells were resuspended in DMEM containing 10% fetal bovine serum, 25 mM KCl and 2 mM glutamine, and seeded in poly-lysine coated plates. After the cells were cultured in a CO2 incubator for 48 hours according to a conventional method, cytosine-1-β-D(+)-arabinofuranoside (Ara-C) (10 μM) was added thereto, and the cell was continued to culture. The following experiments were conducted with the cells of 7 to 14 days old from the start day of the cultivation, the cells having completed neurite extension sufficiently.
# Medium of cerebellar granule cells cultured for 14 days as described in Test Example 3 was replaced with DMEM containing 10% of dialyzed fetal bovine serum and subjected to a further overnight culture. […] When the test compound 15 (10 μM) coexisted, more than 95% of cells were alive on an observation even after 6 hours.
# [4] = test system: cerebellar granule cells; assay: Inhibition of antimycin A-induced death of cerebellar granule cells; type: cell-based, rats; details: compound 10 μM; antimycin A (5 μM); after 2 hours
# Protocol: as §1
# When the test compound 15 (10 μM) coexisted prior to the antimycin A addition, more than 95% of cells were alive on an observation made similarly after 2 hours.
# [5] = test system: Hela 3S cells; assay: Anti-cell death effect on Hela 3S cells cultured in Krebs Ringer Buffer; type: cell-based, human; details: compound 10 μM
# Protocol: Hela 3S cells (culture medium: DMEM containing 10% fetal bovine serum), a cell line derived from human cervical cancer, were seeded into multi 48 well plates and cultured in a CO2 incubator according to conventional procedures. Confirming the subconfluency of a cell culture, the medium was replaced with Krebs Ringer Buffer (120 mM NaCl, […], 1 mM KH2PO4, […], 20 mM HEPES, pH 7.4, 2.57 g/L glucose, 0.05 g/L Phenol Red) and washed three times with the same buffer and cultivation continued in the same buffer. […] When the test compound 1 (10 μM) or the test compound 15 (10 μM) was added in the present culture system and cultivation continued similarly, the proportion of normal cells increased 59% or 77% respectively, and the proportion of necrosis-like cells decreased (1% or 0%, respectively), indicating the anti-cell death effects.
# [6] = test system: cerebellar granule cells; assay: Inhibition of sodium azide-induced death of cerebellar granule cells; type: cell-based, rats; details: compound 10 μM; sodium azide (10 mM); after 2 hours
# Protocol: as §1, with “After the cells were cultured in a CO2 incubator for 48 hours according to a conventional method, cytosine-1-β-D(+)-arabinofuranoside (Ara-C) (10 μM) was added thereto, and the cell was continued to culture.” left out
# [7] = test system: cerebellar granule cells; assay: Inhibition of bilirubin-induced death of cerebellar granule cells; type: cell-based, rats; details: compound 10 μM added prior to bilirubin (10 μg/ml); after 23 hours
# Protocol: as §1
# Neonatal jaundice is known to induce severe brain damages by way of abnormally high concentration of bilirubin in the body. […] When the test compound 15 (10 μM) was added prior to the bilirubin addition, more than 95% of cells were alive on an observation made similarly after 23 hours.
# [8] = test system: Porcine ovarian granulosa cells (POGC); assay: Inhibition of SNP-induced apoptosis of porcine ovarian granulosa cells; type: cell-based; details: SNP 0.5 mM; cells observed after 18 hours
# Source text: Porcine ovaries were washed with PBS buffer, and Porcine ovarian granulosa cells (POGC) were collected by aspiration from follicles with a syringe. Cell fraction was recovered as a precipitate by centrifugation of the suspension. The operation of suspending the cell fraction into PBS buffer and subjecting the resulting suspension to centrifugation was repeated three times to wash the cells. The POGC obtained as a precipitate were suspended again into a culture medium (DMEM containing 10% fetal bovine serum) and cell clumps were disrupted by pipetting. The cell suspension was passed through a mesh to remove contaminating tissue fragments, and then pipetted in 24-well plates for cell culture. The cell suspension was cultured for 2 days in a CO2 incubator according to a conventional procedure (37° C., 5% CO2). Then, the medium was refreshed to remove floating cells and the cultivation was continued further 2 to 3 days until the cells reached subconfluency (0.7 to 2×10^5 cell/well). After the attaching cells were washed with serum-free medium, they were cultured in a serum-free DMEM (containing 5 μg/mL of transferrin, and 40 ng/mL of hydrocortisone, 4 mg/mL of bovine serum albumin (BSA), 100 nM androstendione) and it was possible to continue to culture cells with relatively immature differentiation. […] The cell death was also confirmed by MTT assay. Then, various concentrations of the test compounds were added to the present culture system and the cells were observed after 18 hours.
# [9] = test system: cerebellar granule cells; assay: Inhibition of FCCP-induced death of cerebellar granule cells; type: cell-based, rats; details: compound 10 μM; FCCP (5 μM); after 2 hours
# Protocol: as §1
# When the test compound 15 (10 μM) coexisted prior to the FCCP addition, 80% of cells were alive on an observation similarly made after 2 hours.
# [10] = test system: cerebellar granule cells; assay: Inhibition of low potassium medium-induced death of cerebellar granule cells; type: cell-based, rats; details: compound 10 μM; low potassium medium (5 mM KCl); after 18 hours
# Protocol: as §1
# It is known that neuronal cells undergo cell death when they are cultured in a medium of low potassium (Proc. Natl. Acad. Sci. U.S.A., volume 90, p 10989, 1993). […] When the test compound 1 (10 μM), the test compound 10 (10 μM), or the test compound 15 (10 μM)coexisted, 50%, 80%, and 85% of cells were respectively alive on an observation made similarly after 18 hours.
compound,measurement,setting,value
Cc1ccc2[nH]cc(-c3cn(C)cc3-c3c[nH]c4ccc(C)cc34)c2c1 [Compound 15],inhibition of hemolysis,[1],almost complete inhibition of hemolysis
same,cells alive,[2],more than 95%
same,cells alive,[3],more than 95%
same,cells alive,[4],more than 95%
same,proportion of necrosis-like cells,[5]; after 5 hours (11% without compound),0%
same,proportion of normal cells,[5]; after 5 hours (42% normal without compound),77%
same,cells alive,[6],more than 95%
same,cells alive,[7],more than 95%
same,MEC (Minimum effective concentration for more than 95% of inhibition of cell death),[8],0.05 µM
same,cells alive,[9],80%
same,cells alive,[10],85%
